Experimental data as given in patent US20120052573A1, “ONE-POT SYNTHESIS OF LINEAR-LIKE POLYETHYLENIMINE FOR INTRACELLULAR IMAGING AND NUCLEIC ACID DELIVERY” (NATIONAL HEALTH RESEARCH INSTITUTES, priority 2010, published 2012).

Test system: H460 human lung cancer cells
Test: Flow cytometry cell cycle arrest analysis after cyclin B1 siRNA delivery
Type: cell-based
Settings: [siRNA]=200 nM, [compound b]=100 ng/mL, 24 h, no fetal bovine serum, n=3
Procedure: Flow cytometry for cell cycle analysis. Human lung cancer cells, H460, at 2×10^5 cells/mL were treated with cyclin B1siRNA alone (200 nM) or compound b/siRNA complex ([compound b]=100 ng/mL, [cyclin B1 siRNA]=200 nM) in RPMI 1640 medium for […] at 37° C., 5% CO2(g). After the treatments, cells were washed twice in PBS buffer solution and fixed in cold. PBS solution containing 75% ethanol. After washing with PBS and centrifugation at 1,500 rpm for 5 min, cells were stained with propidium iodide (PI) and analyzed by FACS Calibur (BD PharMingen, N.J., USA) using WinMDI 2.9 analysis software. The cyclic B1 siRNA sequence is 5′-[…]-3 (SEQ ID NO: 1) for sense and 5′-[…]-3 (SEQ ID NO: 2) (NCBI accession number of cyclin B1: NM031966) for anti-sense.
PEI has a high cationic density and can associate with nucleic acids such as siRNA to form a cationic polyplex. The efficiency of the PEI according to the invention as a delivery vehicle for siRNA was examined. Compound b (LPEI) was used to associate with a siRNA for silencing Cyclin B1, which is an indispensable protein for cell mitosis. […] The population proportions of cells were analyzed and summarized in histogram profile (FIG. 4E). […]
H460 lung cancer cells were treated with compound b/siRNA complex for 24 h, and the cell cycle distribution was examined by flow cytometry. […] FL2A: fluorescence pulse area. *p<0.05.

“siRNA alone: cyclin B1 siRNA, sense SEQ ID NO: 1, anti-sense SEQ ID NO: 2 (sense ACAUGAGAGCCAUCCUAAUUGTT; antisense CAAUUAGGAUGGCUCUCAUGUTT; chemistry not given here)” was tested, and the “population in G2/M phase of the cell cycle, increase compared with control” value was 5.52%±0.406.
